Each structure is given as a SMILES string. Peptide text beside a SMILES is read from it. * marks the point of attachment. Cbz = O=C(OCc1ccccc1)*

In one series the test system is HEK-293 cells. Briefly: Apoptosis assay in HEK-293 cells. To be noted: HEK-293 non-cancer derived cells, 10 μM. In kind it is cell-based.
The subject of another series is HeLa cells. Briefly: Live-cell confocal imaging of uptake of fluorescein-labelled peptides. In kind it is cell-based. To be noted: 1000 nM.

For `CC(C)C[C@@H](C=O)NC(=O)[C@H](CC(C)C)NC(=O)[C@H](CC(C)C)NC(=O)OCc1ccccc1` [MG132] (Cbz-Leu-Leu-Leu-aldehyde), the induction of apoptosis entry in the series on HEK-293 cells is given as “did induce apoptosis”.

With `O=C1OC2(c3ccc(O)cc3Oc3cc(O)ccc32)c2ccccc21` [fluorescein], in the series with HeLa cells, the “uptake into live HeLa cells” value is “negligible uptake”.

These data come from article PMC8232551 (RSC Chemical Biology, 2020).
